This is an account of results in ChEMBL document CHEMBL4145506, “Synthesis and biological evaluation of 4,6-diphenyl-2-(1H-pyrrol-1-yl)nicotinonitrile analogues of crolibulin and combretastatin A-4” (Eur J Med Chem, 2018).

For assay [1], the system named is NCI-H460. The assay can be described thus: Antiproliferative activity against human H460 cells after 72 hrs by MTT assay. The format is functional, cell-based. As to conditions: NCI-H460, 72 h. On the technique in general: Tetrazolium dyes change colour on reduction, which living cells bring about.
Another assay has as its system SMMC-7721. Put plainly: Antiproliferative activity against human SMMC7721 cells after 72 hrs by MTT assay. The format is functional, cell-based. The conditions noted are these: SMMC-7721, 72 h.
The subject of assay [2] is HT-29. The assay can be described thus: cells. As to conditions: Homo sapiens, HT-29, 72 h.
The test system of assay [3] is A549. The assay can be described thus: cells. As to conditions: Homo sapiens, A549, 72 h.
Description: Antiproliferative activity against human A549 cells after 72 hrs by MTT assay
The subject of the next assay is MKN-45. Put plainly: cells. The conditions noted are these: Homo sapiens, MKN-45, 72 h.
For assay [4], the system named is A549. The assay can be described thus: Induction of microtubule depolymerization in human A549 cells assessed as scattered short microtubule fragment formation in cytoplasm at 30 nM after 24 hrs by DAPI staining based immunofluorescence microscopic method. The format is cell-based.
The test system of assay [5] is HT-29. The assay can be described thus: Potency index, ratio of crolibulin IC50 to compound IC50 for human HT-29 cells. The format is functional.
Assay [6] relates to NCI-H460. Put plainly: Potency index, ratio of CA-4 IC50 to compound IC50 for human H460 cells. The format is functional.
The subject of assay [7] is A549. The assay can be described thus: Potency index, ratio of CA-4 IC50 to compound IC50 for human A549 cells. The format is functional.
Assay [8] has as its system A549. The assay can be described thus: Potency index, ratio of crolibulin IC50 to compound IC50 for human A549 cells. The format is functional.

The structures appear in SMILES notation. The source made the active and inactive calls. No cut-off for these calls is given here.

Description for MKN-45: Antiproliferative activity against human MKN45 cells after 72 hrs by MTT assay

As a reminder, the IC50 is the concentration at which inhibition is half-maximal. `COc1cc(-c2cc(-c3ccc(F)cc3F)nc(-n3cccc3CN3CCCC3)c2C#N)cc(OC)c1OC`: the IC50 in the assay with NCI-H460 [1] stood at 4.29 µM; in the assay on SMMC-7721, 40.3 µM; with HT-29 [2] it was 5.86 µM; with A549 [3], 10.8 µM; with MKN-45, 43.1 µM.

`CNCc1cccn1-c1nc(-c2ccc(F)cc2F)cc(-c2cc(OC)c(OC)c(OC)c2)c1C#N`: the IC50 in the assay on NCI-H460 [1] came to 2.98 µM; in the assay with SMMC-7721 it was 33.4 µM; with HT-29 [2], 0.95 µM; in the assay with A549 [3] it was 9.54 µM; in the assay on MKN-45, 6.29 µM.

On to `COc1ccc(-c2cc(-c3ccc(F)cc3)nc(-n3cccc3CN(C)C)c2C#N)c(OC)c1OC`, for which the IC50 with NCI-H460 [1] amounted to 5.77 µM; with SMMC-7721 it was 2.36 µM; with HT-29 [2] it was 3.71 µM; in the assay on A549 [3] it was 12.6 µM; in the assay with MKN-45, 45.3 µM.

In the case of `COc1cc(-c2cc(-c3ccc(F)cc3)nc(-n3cccc3CN3CCOCC3)c2C#N)cc(OC)c1OC`, the IC50 with NCI-H460 [1] came out at 5.56 µM; with SMMC-7721 it was 18.8 µM.

Consider `CNCc1cccn1-c1nc(-c2ccc(F)cc2)cc(-c2cc(OC)c(OC)c(OC)c2)c1C#N`, for which the IC50 in the assay on NCI-H460 [1] was found to be 0.06 µM; in the assay with SMMC-7721, 2.95 µM; in the assay on HT-29 [2], 0.08 µM; in the assay on A549 [3], 0.03 µM; with MKN-45, 2.22 µM. The result in the assay on A549 [4] was Active. Further, the “Ratio IC50” value in the assay with HT-29 [5] is listed as 6.9 - 13; with NCI-H460 [6] it was 1.3 - 15; in the assay with A549 [7] it was 1.3 - 15; in the assay with A549 [8], 6.9 - 13.

For `CCNCc1cccn1-c1nc(-c2ccc(F)cc2)cc(-c2cc(OC)c(OC)c(OC)c2)c1C#N`, the IC50 in the assay with NCI-H460 [1] turned out to be 1.54 µM; with SMMC-7721 it was 13.1 µM; in the assay on HT-29 [2] it was 1.21 µM; with A549 [3], 16.9 µM; in the assay on MKN-45, 42.2 µM.

For the compound `COc1cc(-c2cc(-c3ccc(F)cc3)nc(-n3cccc3CN3CCC(C)CC3)c2C#N)cc(OC)c1OC`, the concentration for half-maximal inhibition (IC50) stood at 0.07 µM in the assay on NCI-H460 [1] and 5.87 µM in the assay with SMMC-7721.

In the case of `CNCc1cccn1-c1nc(-c2ccc(F)cc2)cc(-c2ccc(OC)c(OC)c2OC)c1C#N`, the IC50 in the assay with NCI-H460 [1] stood at 0.26 µM; with SMMC-7721, 12.1 µM; in the assay on HT-29 [2], 0.06 µM; in the assay with A549 [3], 14.4 µM; in the assay with MKN-45, 38.3 µM.

Regarding `COc1ccc(/C=C\c2cc(OC)c(OC)c(OC)c2)cc1O` [COMBRETASTATIN A4], the IC50 in the assay with NCI-H460 [1] came out at 0.08 µM; with SMMC-7721, 1.72 µM; in the assay on HT-29 [2], 0.06 µM; in the assay with A549 [3] it was 0.45 µM; in the assay on MKN-45, 0.21 µM. Besides, in the assay on A549 [4], the outcome was Active.

Turning to `COc1cc(-c2cc(-c3ccc(F)cc3)nc(-n3cccc3CN3CCCC3)c2C#N)cc(OC)c1OC`, the IC50 with NCI-H460 [1] turned out to be 8.31 µM; in the assay on SMMC-7721 it was 36.8 µM; in the assay with HT-29 [2], 1.2 µM; in the assay on A549 [3] it was 11 µM; with MKN-45, 35.8 µM.

As to `COc1cc(-c2cc(-c3ccc(F)cc3)nc(-n3cccc3CN3CCN(C)CC3)c2C#N)cc(OC)c1OC`, the IC50 with NCI-H460 [1] came to 0.05 µM; in the assay on SMMC-7721 it was 4.35 µM.

`COc1cc(-c2cc(-c3ccc(F)cc3F)nc(-n3cccc3CNC(C)C)c2C#N)cc(OC)c1OC`: the IC50 in the assay with NCI-H460 [1] was 4.37 µM; in the assay on SMMC-7721, 21.9 µM; in the assay on HT-29 [2], 2.78 µM; in the assay on A549 [3], 16 µM; in the assay on MKN-45 it was 57.5 µM.

As to `COc1cc(-c2cc(-c3ccc(F)cc3F)nc(-n3cccc3CN(C)C)c2C#N)cc(OC)c1OC`, the IC50 with NCI-H460 [1] was 6.18 µM; in the assay on SMMC-7721, 11.7 µM; in the assay on HT-29 [2], 2.51 µM; with A549 [3], 10.7 µM; in the assay on MKN-45, 7.28 µM.

In the case of `COc1ccc(-c2cc(-c3ccc(F)cc3)nc(-n3cccc3CN3CCC(C)CC3)c2C#N)c(OC)c1OC`, the IC50 with NCI-H460 [1] came out at 3.88 µM; in the assay on SMMC-7721 it was 47.4 µM; with HT-29 [2] it was 1.37 µM; in the assay on A549 [3], 6.95 µM; in the assay on MKN-45, 46.2 µM.

With `COc1ccc(-c2cc(-c3ccc(F)cc3)nc(-n3cccc3CN3CCN(C)CC3)c2C#N)c(OC)c1OC`, the IC50 in the assay on NCI-H460 [1] was found to be 0.11 µM; with SMMC-7721, 18.2 µM; in the assay on HT-29 [2], 0.06 µM; in the assay on A549 [3], 4.55 µM; in the assay with MKN-45, 10.1 µM.

With `CCNCc1cccn1-c1nc(-c2ccc(F)cc2F)cc(-c2cc(OC)c(OC)c(OC)c2)c1C#N`, the IC50 in the assay with NCI-H460 [1] was found to be 2.88 µM; in the assay with SMMC-7721, 4.2 µM; in the assay with HT-29 [2], 3.3 µM; in the assay on A549 [3], 4.12 µM; in the assay on MKN-45 it was 13.2 µM.

With `COc1cc(-c2cc(-c3ccc(F)cc3F)nc(-n3cccc3CN3CCN(C)CC3)c2C#N)cc(OC)c1OC`, the IC50 in the assay with NCI-H460 [1] worked out at 4.53 µM; with SMMC-7721, 33.9 µM; with HT-29 [2], 1.77 µM; in the assay on A549 [3], 4.72 µM; with MKN-45, 39.8 µM.

As for `COc1cc(-c2cc(-c3ccc(F)cc3)nc(-n3cccc3CNC(C)C)c2C#N)cc(OC)c1OC`, the half-maximal inhibitory concentration (IC50) in the assay on NCI-H460 [1] was 0.24 µM; in the assay on SMMC-7721, 34.9 µM; in the assay with HT-29 [2] it was 0.1 µM; in the assay with A549 [3], 8.26 µM; with MKN-45, 38.5 µM.

`COc1cc(-c2cc(-c3ccc(F)cc3)nc(-n3cccc3CN(C)C)c2C#N)cc(OC)c1OC`: the IC50 came to 0.31 µM in the assay with NCI-H460 [1]; 20.9 µM in the assay with SMMC-7721; 0.1 µM in the assay with HT-29 [2]; 0.17 µM with A549 [3]; 10.4 µM with MKN-45.

Turning to `COc1cc(-c2cc(-c3ccc(F)cc3F)nc(-n3cccc3CN3CCC(C)CC3)c2C#N)cc(OC)c1OC`, the half-inhibitory concentration (IC50) in the assay with NCI-H460 [1] stood at 5.3 µM; with SMMC-7721, 7.73 µM; in the assay on HT-29 [2], 8.76 µM; with A549 [3] it was 8.07 µM; with MKN-45, 5.91 µM.

As to `COc1cc(-c2cc(-c3ccc(F)cc3)nc(-n3cccc3)c2C#N)cc(OC)c1OC`, the IC50 with NCI-H460 [1] worked out at 21.3 µM; in the assay on SMMC-7721, 61.1 µM; in the assay on HT-29 [2] it was 9.34 µM; in the assay with A549 [3], 44.1 µM; in the assay with MKN-45 it was 58.5 µM.

For the compound `COc1cc(-c2cc(-c3ccc(F)cc3F)nc(-n3cccc3CN3CCOCC3)c2C#N)cc(OC)c1OC`, the IC50 in the assay on NCI-H460 [1] came out at 12.5 µM; with SMMC-7721 it was 40.8 µM; with HT-29 [2], 6.34 µM; in the assay with A549 [3], 11 µM; in the assay with MKN-45 it was 39.7 µM.

Consider `COc1cc([C@H]2C(C#N)=C(N)Oc3c2ccc(N)c3N)cc(Br)c1OC` [CROLIBULIN], for which the IC50 in the assay on NCI-H460 [1] stood at 0.03 µM; in the assay on HT-29 [2], 0.55 µM; in the assay on A549 [3], 0.39 µM; in the assay on MKN-45 it was 0.17 µM.
